Assay results taken from patent EP3623369A1, “NOVEL MORPHOLINYL AMINE COMPOUNDS FOR THE TREATMENT OF AUTOIMMUNE DISEASE” (F. Hoffmann-La Roche AG, priority 2018, dated 2020).
Where two headings read alike, the source gives them in different places.

Assays:
[1] = Human microsome stability assay; format: in vitro ADME; conditions: human liver microsomes, 1 µM test compound, 0.5 mg/mL protein, 37°C, up to 30 minutes
Method: Human microsome stability assay
The human microsomal stability assay is used for early assessment of metabolic stability of a test compound in human liver microsomes.
Human liver microsomes (Cat.NO.: 452117, Corning, USA;Cat.NO.:H2610, Xenotech, USA) were preincubated with test compound for 10 minutes at 37°C in 100 mM potassium phosphate buffer, pH 7.4. The reactions were initiated by adding NADPH regenerating system. The final incubation mixtures contained 1 µM test compound, 0.5 mg/mL liver microsomal protein, 1 mM MgCl2, 1 mM NADP, 1 unit/mL isocitric dehydrogenase and 6 mM isocitric acid in 100 mM potassium phosphate buffer, pH 7.4. After incubation times of 0, 3, 6, 9, 15 and 30 minutes at 37°C, 300 µL of cold acetonitrile (including internal standard) was added to 100 µL incubation mixture to terminate the reaction. Following precipitation and centrifugation, the amount of compound remaining in the samples were determined by LC-MS/MS. Controls of no NADPH regenerating system at zero and 30 minutes were also prepared and analyzed. […] Table 3. Human liver microsome stability of the compounds of present invention

hTLR7 [2] = target: T1, hTLR7 (Homo sapiens, UniProt Q9NYK1); assay: HEK293-Blue-hTLR-7 cells assay (SEAP reporter, R848 stimulation); format: cell-based; conditions: HEK293-Blue-hTLR7 cells, R848, 20 hrs; 0.003 is the lowest tested concentration; read-out: HEK/hTLR7 IC50
T1 sequence (Q9NYK1 27-1049): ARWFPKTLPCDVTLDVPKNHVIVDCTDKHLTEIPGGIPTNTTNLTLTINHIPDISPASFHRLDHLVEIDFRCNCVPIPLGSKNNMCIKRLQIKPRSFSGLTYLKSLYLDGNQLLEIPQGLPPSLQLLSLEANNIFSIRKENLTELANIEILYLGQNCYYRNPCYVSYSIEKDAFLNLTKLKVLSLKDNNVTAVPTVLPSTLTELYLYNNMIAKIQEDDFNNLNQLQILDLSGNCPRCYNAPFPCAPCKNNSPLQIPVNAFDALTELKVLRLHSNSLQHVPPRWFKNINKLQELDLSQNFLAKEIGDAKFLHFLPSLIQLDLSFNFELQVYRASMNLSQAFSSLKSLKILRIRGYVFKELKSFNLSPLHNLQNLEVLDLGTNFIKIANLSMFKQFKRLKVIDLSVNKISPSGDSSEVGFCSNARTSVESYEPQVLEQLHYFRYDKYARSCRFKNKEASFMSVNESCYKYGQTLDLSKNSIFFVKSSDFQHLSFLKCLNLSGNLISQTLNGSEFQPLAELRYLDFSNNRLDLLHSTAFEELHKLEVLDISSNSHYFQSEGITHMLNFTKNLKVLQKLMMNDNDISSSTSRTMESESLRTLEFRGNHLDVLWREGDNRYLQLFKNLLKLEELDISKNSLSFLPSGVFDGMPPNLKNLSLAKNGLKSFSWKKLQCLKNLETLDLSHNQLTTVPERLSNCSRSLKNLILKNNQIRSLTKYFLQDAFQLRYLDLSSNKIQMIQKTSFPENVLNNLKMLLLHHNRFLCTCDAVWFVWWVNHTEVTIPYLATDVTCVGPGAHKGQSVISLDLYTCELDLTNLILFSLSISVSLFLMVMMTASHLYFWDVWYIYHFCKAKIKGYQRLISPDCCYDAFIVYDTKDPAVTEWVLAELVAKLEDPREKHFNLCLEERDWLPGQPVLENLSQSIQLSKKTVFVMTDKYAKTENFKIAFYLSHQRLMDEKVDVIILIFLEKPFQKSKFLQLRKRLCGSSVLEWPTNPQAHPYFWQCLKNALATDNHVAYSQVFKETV
Procedure, shortened: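 HEK293-Blue-hTLR7 cells carry an NF-κB/AP-1-driven SEAP reporter and were stimulated with R848 in the presence of serially diluted compound (1% DMSO final) for 20 hrs at 37 °C. Supernatant SEAP was measured with QUANTI-Blue after 2 hrs at 37 °C, reading absorbance at 620∼655 nm.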

hTLR7 [3] = target: T1, hTLR7; set-up: host or cells: HEK; conditions: data disclosed in US20150105370; read-out: HEK/hTLR7 IC50; cited from earlier work

Row | Compound | Clearance of Human microsome [1] [mL/min/kg] | IC50 (hTLR7 [2]) [nM] | IC50 (hTLR7 [3]) [nM]
1 | C[C@@H]1CN(c2ccc(C#N)c3ncccc23)C[C@H](CN2Cc3ccc(N4CC5(CCN5)C4)cc3C2)O1 [Example 55, 5-[(2S,6R)-2-[[5-(1,6-diazaspiro[3.3]heptan-6-yl)isoindolin-2-yl]methyl]-6-methyl-morpholin-4-yl]quinoline-8-carbonitrile] | 7.09 | 80 | –
2 | C[C@@H]1CN(c2ccc(C#N)c3ncccc23)C[C@H](CN2CCc3cc(N4CCNCC4)ccc3C2)O1 [Example 19, 5-[(2R,6S)-2-methyl-6-[(6-piperazin-1-yl-3,4-dihydro-1H-isoquinolin-2-yl)methyl]morpholin-4-yl]quinoline-8-carbonitrile] | 6.17 | 11 | –
3 | C[C@@H]1CN(c2ccc3c(c2)CN(C[C@H]2CN(c4ccc(C#N)c5ncccc45)C[C@@H](C)O2)C3)CCN1 [Example 62, 5-[(2R,6S)-2-methyl-6-[[5-[(3R)-3-methylpiperazin-1-yl]isoindolin-2-yl]methyl]morpholin-4-yl] quinoline-8-carbonitrile] | 6.39 | 26 | –
4 | C[C@@H]1CN(c2ccc(C#N)c3ncccc23)C[C@H](CN2Cc3ccccc3C2)O1 [Example R3, 5-[(2S,6R)-2-(isoindolin-2-ylmethyl)-6-methyl-morpholin-4-yl]quinoline-8-carbonitrile, reference compound] | 15.4 | 186 | –
5 | C[C@@H]1CN(c2ccc(C#N)c3ncccc23)C[C@H](CN2Cc3ccc(N4CCNCC4)cc3C2)O1 [Example 21, 5-[(2R,6S)-2-methyl-6-[(5-piperazin-1-ylisoindolin-2-yl)methyl]morpholin-4-yl]quinoline-8-carbonitrile] | 6.15 | 9 | –
6 | C[C@@H]1CN(c2ccc(C#N)n3nccc23)C[C@H](CN2CCc3cnccc3C2)O1 [Example R1, 4-[(2S,6R)-2-(3,4-dihydro-1H-2,6-naphthyridin-2-ylmethyl)-6-methyl-morpholin-4-yl]pyrazolo[1,5-a]pyridine-7-carbonitrile, reference compound] | – | 550 | –
7 | C[C@@H]1CN(c2ccc(C#N)c3nccnc23)C[C@H](CN2Cc3ccc(N4C5CCC4CNC5)cc3C2)O1 [Example 41, 8-[(2S,6R)-2-[[5-(3,8-diazabicyclo[3.2.1]octan-8-yl)isoindolin-2-yl]methyl]-6-methyl-morpholin-4-yl]quinoxaline-5-carbonitrile] | – | 59 | –
8 | C[C@@H]1CN(c2ccc(C#N)n3nccc23)C[C@H](CN2Cc3ccc(N4CCNCC4)cc3C2)O1 [Example 4, 4-[(2R,6S)-2-methyl-6-[(5-piperazin-1-ylisoindolin-2-yl)methyl]morpholin-4-yl]pyrazolo[1,5-a]pyridine-7-carbonitrile] | – | 56 | –
9 | C[C@@H]1CN(c2ccc(C#N)n3nccc23)C[C@H](CN2Cc3ccc(N4CCN(C)CC4)cc3C2)O1 [Example 17, 4-[(2R,6S)-2-methyl-6-[[5-(4-methylpiperazin-1-yl)isoindolin-2-yl]methyl]morpholin-4-yl]pyrazolo[1,5-a]pyridine-7-carbonitrile] | – | 65 | –
10 | C[C@@H]1CN(c2ccc(C#N)c3ncccc23)C[C@H](CN2Cc3ccc(N4CC(N)C4)cc3C2)O1 [Example 77, 5-[(2S,6R)-2-[[5-(3-aminoazetidin-1-yl)isoindolin-2-yl]methyl]-6-methyl-morpholin-4-yl]quinoline-8-carbonitrile] | – | 32 | –
11 | C[C@@H]1CN(c2ccc(C#N)c3ncccc23)C[C@H](CN2Cc3ccc(N4CCNCC4)cc3C(O)C2)O1 (stereo partly drawn) [Example 75, 5-[(2S,6R)-2-[(4-hydroxy-6-piperazin-1-yl-3,4-dihydro-1H-isoquinolin-2-yl)methyl]-6-methyl-morpholin-4-yl]quinoline-8-carbonitrile] | – | 42 | –
12 | C[C@@H]1CN(c2ccc(C#N)c3ncccc23)C[C@H](CN2Cc3ccc(N4CC5CCC(C4)N5)cc3C2)O1 [Example 42, 5-[(2S,6R)-2-[[5-(3,8-diazabicyclo[3.2.1]octan-3-yl)isoindolin-2-yl]methyl]-6-methyl-morpholin-4-yl]quinoline-8-carbonitrile] | – | 62 | –
13 | C[C@@H]1CN(c2ccc(Cl)c3nccnc23)C[C@H](CN2Cc3ccc(N4CCNCC4)cc3C2)O1 [Example 33, (2R,6S)-4-(8-chloroquinoxalin-5-yl)-2-methyl-6-[(5-piperazin-1-ylisoindolin-2-yl)methyl]morpholine] | – | 9 | –
14 | C[C@@H]1CN(c2ccc(C#N)c3ncccc23)C[C@H](CN2Cc3cnc(N4CCNCC4)nc3C2)O1 [Example 63, 5-[(2R,6S)-2-methyl-6-[(2-piperazin-1-yl-5,7-dihydropyrrolo[3,4-d]pyrimidin-6-yl)methyl]morpholin-4-yl]quinoline-8-carbonitrile] | – | 13 | –
15 | C[C@@H]1CN(c2ccc(C#N)n3nccc23)C[C@H](CNCc2ccc(N3CCNCC3)cc2)O1 [Example 16, 4-[(2R,6S)-2-methyl-6-[[(4-piperazin-1-ylphenyl)methylamino]methyl]morpholin-4-yl]pyrazolo[1,5-a]pyridine-7-carbonitrile] | 7.31 | 104 | –
16 | C[C@@H]1CN(c2ccc(C#N)c3ncccc23)C[C@H](CNCc2ccccc2)O1 [ER-886509, reference compound] | 15.2 | 88 | 44
